We go through 13 compounds from ChEMBL document CHEMBL1147380, “Studies on the acetogenins of Formosan annonaceous plants. II. Cytotoxic acetogenins from Annona reticulata” (1993).

≈ marks a conversion by molar mass, not a printed value.

Holding throughout (format): functional
Test [1] has as its system HT-29. The test can be described thus: Cytotoxicity against human HT-29 cells. The settings on record: for EC50: Homo sapiens, HT-29, read-out: ED50 (the source's name).
In test [2] the test system is KB. The test can be described thus: Cytotoxicity against human KB cells. The following applies: for EC50: Homo sapiens, KB, read-out: ED50 (the source's name).
Test [3] deals with P388. The test can be described thus: Cytotoxicity against mouse P388 cells. The settings on record: for EC50: Mus musculus, P388, read-out: ED50 (the source's name).
Test [4] deals with A549. The test can be described thus: Cytotoxicity against human A549 cells. The following applies: for EC50: Homo sapiens, A549, read-out: ED50 (the source's name).
Test [5] concerns MCF7. In words: Cytotoxicity against human MCF7 cells. The settings on record: for EC50: Homo sapiens, MCF7, read-out: ED50 (the source's name).

For the compound `CCCCCCCCCCCC[C@H](O)[C@@H]1CC[C@@H]([C@@H](O)CCCCCC(=O)CCCCC(O)CC2=CC(C)OC2=O)O1` (some centres not stated), the EC50 was 1.32 µg/mL (≈ 2.22 µM) in test [1], 4.66 µg/mL (≈ 7.83 µM) in test [2], 0.2 µg/mL (≈ 0.336 µM) in test [3] and 0.01 µg/mL (≈ 0.0168 µM) in test [4].
`CCCCCCCCCC[C@@H](O)[C@@H]1CC[C@@H]([C@@H]2CC[C@@H]([C@H](O)CCCCCCCCCC(O)CC3=CC(C)OC3=O)O2)O1` (stereo in doubt; 7) [BULLATACIN]: the EC50 is 10 µg/mL (≈ 16.4 µM) in test [2] and 0.001 µg/mL (≈ 0.00164 µM) in test [4].
For the compound `CCCCCCCCCC[C@@H](O)[C@@H]1CC[C@@H]([C@@H]2CC[C@@H]([C@H](O)CCCCCCCCCC(O)CC3=CC(C)OC3=O)O2)O1` (stereo in doubt; 13) [BULLATACIN], the ED50 is <1 ×10⁻³ ug/ml in test [1], <1 ×10⁻⁵ ug/ml in test [5] and <1 ×10⁻⁵ ug/ml in test [4].
Take `CCCCCCCCCCCC[C@H](O)[C@@H]1CC[C@@H]([C@@H](O)CC(O)CCCCC(O)CCCC(O)CC2=CC(C)OC2=O)O1` (some centres not stated) [ANNOMONICIN]: the results for the EC50 in test [2] and in test [3] were 2.29 µg/mL (≈ 3.74 µM) and 0.24 µg/mL (≈ 0.392 µM), respectively.
Regarding `CCCCCCCCCCCC[C@@H](O)[C@H]1CC[C@H]([C@H](O)CCCCC(=O)CCCCC[C@@H](O)CC2=C[C@H](C)OC2=O)O1` [ANNONACINONE], the EC50 stood at 1 µg/mL (≈ 1.68 µM) in test [1], 0.01 µg/mL (≈ 0.0168 µM) in test [2] and 0.1 µg/mL (≈ 0.168 µM) in test [4]. In addition, in test [3], the ED50 came to 1 ×10⁻⁶ ug/ml.
On to `CCCCCCCCCCCC[C@@H](O)[C@H]1CC[C@H]([C@H](O)CCCC[C@H](O)CCCCC[C@@H](O)CC2=CC(C)OC2=O)O1` (some centres not stated) [ANNONACIN], for which the figures for the EC50 in test [1] and in test [4] were 3 µg/mL (≈ 5.03 µM) and 0.001 µg/mL (≈ 0.00168 µM), respectively. For the same compound, the ED50 in test [2] worked out at 1 ×10⁻⁴ ug/ml; in test [3], 1 ×10⁻⁵ ug/ml.
For the compound `CCCCCCCCCCCC[C@H](O)[C@@H]1CC[C@@H]([C@@H](O)CCCCCC(O)CCCCC(O)CC2=CC(C)OC2=O)O1` (some centres not stated) [ANNORETICUIN], the EC50 was determined as 2.28 µg/mL (≈ 3.82 µM) in test [1], 3.37 µg/mL (≈ 5.65 µM) in test [2], 1 µg/mL (≈ 1.68 µM) in test [3] and 0.4 µg/mL (≈ 0.67 µM) in test [4].
As for `CCCCCCCCCCCC[C@H](O)[C@@H]1CC[C@@H]([C@@H](O)CCCCC(=O)CCCCCC2CC(CC(C)=O)C(=O)O2)O1` (some centres not stated) [ISOANNONACINONE], the EC50 in test [1] stood at 0.009 µg/mL (≈ 0.0151 µM); in test [3], 0.5 µg/mL (≈ 0.841 µM); in test [4] it was 0.07 µg/mL (≈ 0.118 µM).
Taken in the same sequence, the figures for `CCCCCCCCCCCC[C@H](O)[C@@H]1CC[C@@H]([C@@H](O)CCCCC(O)CCCCCC2CC(CC(C)=O)C(=O)O2)O1` (some centres not stated) [ISOANNONACIN] were 0.002 µg/mL (≈ 0.00335 µM), 3 µg/mL (≈ 5.03 µM) and 0.02 µg/mL (≈ 0.0335 µM).
On to `CCCCCCCCCCCC[C@H](O)[C@@H]1CC[C@@H]([C@@H](O)CCCCCC(O)CCCCC2CC(CC(C)=O)C(=O)O2)O1` (some centres not stated) [ISOANNORETICUIN], for which the EC50 in test [1] turned out to be 3.06 µg/mL (≈ 5.13 µM); in test [2] it was 6.96 µg/mL (≈ 11.7 µM); in test [3] it was 3.6 µg/mL (≈ 6.03 µM); in test [4], 0.4 µg/mL (≈ 0.67 µM).
As to `CCCCCCCCCCCC[C@@H](O)[C@H]1CC[C@H]([C@H](O)CCCCCCCCCCCCC2=C[C@H](C)OC2=O)O1` [REL-SOLAMIN], the EC50 stood at 0.3 µg/mL (≈ 0.531 µM) in test [2] and 0.04 µg/mL (≈ 0.0708 µM) in test [3].
Consider `CCCCCCCCCCCC[C@H](O)[C@@H]1CC[C@@H]([C@@H](O)CCCCCCCCCCCCCCC2=CC(C)OC2=O)O1` (some centres not stated) [RETICULATACIN], for which the EC50 in test [1] was 4.66 µg/mL (≈ 7.86 µM); in test [5], 2.91 µg/mL (≈ 4.91 µM); in test [4], 3.49 µg/mL (≈ 5.89 µM).
As for `CCCCCCCCCCCC[C@H](O)[C@@H]1CC[C@@H]([C@@H](O)CCCCCC(=O)CCCCC2CC(CC(C)=O)C(=O)O2)O1` (some centres not stated) [SQUAMONE], the EC50 in test [2] was determined as 1.5 µg/mL (≈ 2.52 µM); in test [3], 5.6 µg/mL (≈ 9.41 µM); in test [5] it was 2.14 µg/mL (≈ 3.6 µM); in test [4], 1.34 µg/mL (≈ 2.25 µM).
